For two molecules, remaining binding results are on record in paper PMC5862592, “CDK8/19 inhibition induces premature G1/S transition and ATR-dependent cell death in prostate cancer cells” (Oncotarget, 2018).

Like-named read-outs stand apart in the source and are kept apart here.

What all share (assay): biochemical
Common to all, as to parameters: KINOMEscan active site-directed competition binding assay (DiscoveRx), 456 kinases, per cent of control at 300 nM
Conditions in all cases: read-out: Percent of Control (%)

The target in one experiment is T1, ADCK4 (Homo sapiens, UniProt Q96D53).
T1 construct: gene COQ8B
Put shortly: (§1)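 Active site-directed competition binding (KINOMEscan) across a 456-kinase panel, compounds tested at 300 nmol/L.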

Another experiment has as its target T2, CDC2L1 (Homo sapiens, UniProt P21127).
T2 construct: gene CDK11B
Put shortly: as §1

The target of experiment [1] is EGFR(L747-S752del, P753S) (Homo sapiens, UniProt P00533, DEL747-752/P753S). In short, it runs like this: as §1
The target of a further experiment is EGFR(L858R) (Homo sapiens, UniProt P00533, L858R). Put shortly: as §1
In the next experiment the target is EPHA2 (Homo sapiens, UniProt P29317). In short, it runs like this:
as §1

The target in the next experiment is T3, FAK (Homo sapiens, UniProt Q05397).
T3 construct: gene PTK2
Put shortly:
as §1

The target of the next experiment is IRAK4 (Homo sapiens, UniProt Q9NWZ3). Put shortly: as §1
The target of a further experiment is KIT(D816V) (Homo sapiens, UniProt P10721, D816V). Put shortly: as §1
KIT(D816V), sequence (P10721 whole entry D816V): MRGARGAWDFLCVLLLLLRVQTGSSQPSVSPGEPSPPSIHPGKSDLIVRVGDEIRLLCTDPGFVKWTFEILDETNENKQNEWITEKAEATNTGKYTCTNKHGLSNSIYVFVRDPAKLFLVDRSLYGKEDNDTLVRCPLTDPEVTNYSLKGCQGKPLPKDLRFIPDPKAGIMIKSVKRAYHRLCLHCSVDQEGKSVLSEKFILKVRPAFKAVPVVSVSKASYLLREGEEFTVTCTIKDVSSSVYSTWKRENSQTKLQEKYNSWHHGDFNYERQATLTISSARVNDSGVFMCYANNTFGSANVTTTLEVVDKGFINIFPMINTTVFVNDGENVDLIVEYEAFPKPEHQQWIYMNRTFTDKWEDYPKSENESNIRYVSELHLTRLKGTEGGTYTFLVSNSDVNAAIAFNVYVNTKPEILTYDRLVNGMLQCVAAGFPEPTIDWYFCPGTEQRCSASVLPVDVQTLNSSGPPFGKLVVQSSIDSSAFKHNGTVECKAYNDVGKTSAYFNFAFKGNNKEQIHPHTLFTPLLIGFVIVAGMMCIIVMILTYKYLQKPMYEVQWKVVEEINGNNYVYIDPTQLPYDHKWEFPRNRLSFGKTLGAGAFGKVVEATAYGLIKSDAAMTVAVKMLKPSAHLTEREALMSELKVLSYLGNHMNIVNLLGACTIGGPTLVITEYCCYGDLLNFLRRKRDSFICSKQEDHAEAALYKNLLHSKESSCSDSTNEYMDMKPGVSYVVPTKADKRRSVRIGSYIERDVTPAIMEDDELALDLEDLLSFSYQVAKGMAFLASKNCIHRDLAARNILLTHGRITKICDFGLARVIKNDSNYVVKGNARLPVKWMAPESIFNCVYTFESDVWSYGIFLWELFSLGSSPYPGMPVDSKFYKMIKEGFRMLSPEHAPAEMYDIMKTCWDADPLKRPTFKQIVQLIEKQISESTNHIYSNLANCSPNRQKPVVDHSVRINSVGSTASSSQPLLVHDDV
Another experiment concerns the target KIT(L576P) (Homo sapiens, UniProt P10721, L576P). Put shortly:
as §1

Another experiment deals with LRRK2(G2019S) (Homo sapiens, UniProt Q5S007, G2019S). Put shortly:
as §1

Another experiment addresses MAPKAPK5 (Homo sapiens, UniProt Q8IW41). In short, it runs like this:
as §1

The target in the next experiment is MAST1 (Homo sapiens, UniProt Q9Y2H9). In short, it runs like this: as §1
MAST1, sequence (Q9Y2H9 whole entry): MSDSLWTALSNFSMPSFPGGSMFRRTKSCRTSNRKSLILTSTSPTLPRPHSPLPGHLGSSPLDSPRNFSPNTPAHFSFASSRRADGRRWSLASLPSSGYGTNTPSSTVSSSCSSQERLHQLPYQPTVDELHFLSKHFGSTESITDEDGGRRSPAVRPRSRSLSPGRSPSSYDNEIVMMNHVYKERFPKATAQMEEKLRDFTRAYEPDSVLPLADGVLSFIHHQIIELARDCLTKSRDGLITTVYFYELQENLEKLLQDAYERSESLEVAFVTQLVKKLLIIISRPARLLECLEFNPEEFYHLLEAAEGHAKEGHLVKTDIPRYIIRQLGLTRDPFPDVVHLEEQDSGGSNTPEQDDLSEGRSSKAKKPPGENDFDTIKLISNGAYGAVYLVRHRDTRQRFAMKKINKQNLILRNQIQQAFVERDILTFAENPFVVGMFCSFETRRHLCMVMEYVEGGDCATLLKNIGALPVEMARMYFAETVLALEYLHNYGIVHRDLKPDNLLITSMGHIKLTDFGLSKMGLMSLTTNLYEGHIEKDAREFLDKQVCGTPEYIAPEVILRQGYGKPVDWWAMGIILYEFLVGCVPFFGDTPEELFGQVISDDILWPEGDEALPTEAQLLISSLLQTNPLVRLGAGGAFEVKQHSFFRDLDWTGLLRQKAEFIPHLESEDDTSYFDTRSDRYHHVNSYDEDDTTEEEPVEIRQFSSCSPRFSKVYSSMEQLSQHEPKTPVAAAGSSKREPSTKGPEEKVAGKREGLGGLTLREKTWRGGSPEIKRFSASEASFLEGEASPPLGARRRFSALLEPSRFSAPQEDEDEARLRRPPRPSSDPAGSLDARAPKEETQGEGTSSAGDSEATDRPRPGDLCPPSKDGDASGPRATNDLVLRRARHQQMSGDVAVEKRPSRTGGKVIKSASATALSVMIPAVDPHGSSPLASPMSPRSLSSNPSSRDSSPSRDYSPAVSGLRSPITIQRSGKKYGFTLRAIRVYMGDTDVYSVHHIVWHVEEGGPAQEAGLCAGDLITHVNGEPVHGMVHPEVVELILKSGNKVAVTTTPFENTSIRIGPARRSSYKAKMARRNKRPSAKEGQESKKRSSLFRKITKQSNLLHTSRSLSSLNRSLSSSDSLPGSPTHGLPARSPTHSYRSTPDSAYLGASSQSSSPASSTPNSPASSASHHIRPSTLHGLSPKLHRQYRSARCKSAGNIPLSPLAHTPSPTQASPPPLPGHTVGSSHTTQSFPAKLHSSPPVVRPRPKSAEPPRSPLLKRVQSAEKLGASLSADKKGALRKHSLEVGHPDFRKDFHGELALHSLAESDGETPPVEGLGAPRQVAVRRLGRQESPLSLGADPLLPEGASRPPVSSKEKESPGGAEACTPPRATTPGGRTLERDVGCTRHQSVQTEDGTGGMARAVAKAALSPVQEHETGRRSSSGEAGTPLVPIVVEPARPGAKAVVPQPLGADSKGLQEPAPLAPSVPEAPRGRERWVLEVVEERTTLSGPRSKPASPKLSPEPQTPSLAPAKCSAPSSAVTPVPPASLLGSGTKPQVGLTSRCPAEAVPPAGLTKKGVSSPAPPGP
In another experiment the target is MET(Y1235D) (Homo sapiens, UniProt P08581, Y1235D). Put shortly: as §1
For the next experiment, the target named is NEK2 (Homo sapiens, UniProt P51955). Put shortly: as §1
The target of a further experiment is T4, PCTK1 (Homo sapiens, UniProt Q00536).
T4 construct: gene CDK16
T4 sequence (Q00536 whole entry): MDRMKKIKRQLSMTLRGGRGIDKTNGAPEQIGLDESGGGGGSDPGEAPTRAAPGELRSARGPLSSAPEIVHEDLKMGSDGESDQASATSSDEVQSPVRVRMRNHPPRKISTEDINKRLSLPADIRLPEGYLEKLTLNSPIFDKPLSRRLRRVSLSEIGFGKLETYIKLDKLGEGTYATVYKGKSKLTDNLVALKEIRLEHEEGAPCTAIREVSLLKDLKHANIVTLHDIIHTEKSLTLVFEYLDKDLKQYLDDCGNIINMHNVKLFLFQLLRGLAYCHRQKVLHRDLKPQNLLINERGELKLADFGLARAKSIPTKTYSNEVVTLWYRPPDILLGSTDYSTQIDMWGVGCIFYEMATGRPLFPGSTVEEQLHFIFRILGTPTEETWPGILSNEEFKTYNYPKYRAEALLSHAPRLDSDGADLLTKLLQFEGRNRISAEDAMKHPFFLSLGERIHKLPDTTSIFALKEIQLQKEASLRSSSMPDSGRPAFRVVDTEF
Put shortly:
as §1

The target of the next experiment is PIM1 (Homo sapiens, UniProt P11309). In short, it runs like this: as §1
PIM1, sequence (P11309 whole entry): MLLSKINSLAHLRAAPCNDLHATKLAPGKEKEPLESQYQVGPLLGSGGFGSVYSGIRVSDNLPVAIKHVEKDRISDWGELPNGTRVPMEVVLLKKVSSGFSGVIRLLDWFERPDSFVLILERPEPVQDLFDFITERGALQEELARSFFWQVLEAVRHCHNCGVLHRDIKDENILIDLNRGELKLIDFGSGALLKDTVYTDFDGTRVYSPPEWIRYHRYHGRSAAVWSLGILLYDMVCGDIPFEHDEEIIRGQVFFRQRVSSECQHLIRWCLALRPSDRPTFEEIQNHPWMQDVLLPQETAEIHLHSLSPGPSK
In another experiment the target is RAF1 (Homo sapiens, UniProt P04049). In short, it runs like this:
as §1

Another experiment addresses T5, RIPK5 (Homo sapiens, UniProt Q6XUX3).
T5 construct: gene DSTYK
Put shortly: as §1

A further experiment concerns the target STK35 (Homo sapiens, UniProt Q8TDR2). In short, it runs like this:
as §1

A further experiment has as its target T6, TIE2 (Homo sapiens, UniProt Q02763).
T6 construct: gene TEK
Put shortly:
as §1

For another experiment, the target named is T7, p38-alpha (Homo sapiens, UniProt Q16539).
T7 construct: gene MAPK14
In short, it runs like this: as §1

STK35, sequence (Q8TDR2 whole entry): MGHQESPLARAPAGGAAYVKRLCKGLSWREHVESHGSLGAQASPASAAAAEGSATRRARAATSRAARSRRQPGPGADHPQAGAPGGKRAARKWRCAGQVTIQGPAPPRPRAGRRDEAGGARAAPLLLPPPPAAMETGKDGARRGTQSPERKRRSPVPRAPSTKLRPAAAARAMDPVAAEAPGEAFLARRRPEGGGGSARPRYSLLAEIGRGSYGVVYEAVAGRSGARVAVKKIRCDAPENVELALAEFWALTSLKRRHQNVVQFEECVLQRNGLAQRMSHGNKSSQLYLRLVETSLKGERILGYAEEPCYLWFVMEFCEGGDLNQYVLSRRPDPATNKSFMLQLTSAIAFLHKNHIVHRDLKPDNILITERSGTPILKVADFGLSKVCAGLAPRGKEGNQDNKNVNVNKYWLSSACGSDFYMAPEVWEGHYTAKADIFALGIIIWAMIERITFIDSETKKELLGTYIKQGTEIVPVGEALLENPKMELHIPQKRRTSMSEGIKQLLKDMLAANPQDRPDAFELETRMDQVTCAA
EPHA2, sequence (P29317 whole entry): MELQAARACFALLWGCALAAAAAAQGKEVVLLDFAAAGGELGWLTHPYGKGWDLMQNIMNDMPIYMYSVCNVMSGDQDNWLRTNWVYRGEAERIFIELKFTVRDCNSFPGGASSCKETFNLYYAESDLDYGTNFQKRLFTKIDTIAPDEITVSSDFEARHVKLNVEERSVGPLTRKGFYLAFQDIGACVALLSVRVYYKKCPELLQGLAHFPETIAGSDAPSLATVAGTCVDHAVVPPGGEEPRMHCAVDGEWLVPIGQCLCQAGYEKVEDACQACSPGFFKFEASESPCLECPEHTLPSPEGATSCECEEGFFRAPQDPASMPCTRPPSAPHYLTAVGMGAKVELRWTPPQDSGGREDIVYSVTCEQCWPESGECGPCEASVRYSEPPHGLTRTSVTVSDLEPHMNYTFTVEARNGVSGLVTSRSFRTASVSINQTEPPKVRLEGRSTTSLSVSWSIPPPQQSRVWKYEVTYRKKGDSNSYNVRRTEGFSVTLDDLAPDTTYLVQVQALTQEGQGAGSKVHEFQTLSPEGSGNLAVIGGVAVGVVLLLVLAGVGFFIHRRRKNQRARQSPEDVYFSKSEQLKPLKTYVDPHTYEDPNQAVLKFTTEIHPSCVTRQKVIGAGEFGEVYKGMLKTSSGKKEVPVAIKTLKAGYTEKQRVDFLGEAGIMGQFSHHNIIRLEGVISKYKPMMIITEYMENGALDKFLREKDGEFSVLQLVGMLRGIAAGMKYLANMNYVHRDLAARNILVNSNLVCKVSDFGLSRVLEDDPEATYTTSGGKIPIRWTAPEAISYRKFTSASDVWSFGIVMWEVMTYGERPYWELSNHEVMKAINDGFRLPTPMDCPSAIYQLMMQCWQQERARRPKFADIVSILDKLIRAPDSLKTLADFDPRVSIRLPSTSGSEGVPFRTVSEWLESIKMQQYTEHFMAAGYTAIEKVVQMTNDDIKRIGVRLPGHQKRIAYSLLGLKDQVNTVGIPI
KIT(L576P), sequence (P10721 whole entry L576P): as the sequence (P10721 whole entry D816V) above, with L576P, V816D counted along it

In the case of `O=C(/C=C/c1cnccc1-c1ccc(F)cc1)Nc1ccc(CCc2nnco2)cc1` [T-418, (2E)-3-(4-(4-fluorophenyl)pyridin-3-yl)-N-(4-(2-(1,3,4-oxadiazol-2-yl)ethyl)phenyl)acrylamide], the remaining binding at 0.3 µM at ADCK4 (sheet T-418) is 91%; on CDC2L1 (sheet T-418), 92%; in experiment [1] (sheet T-418), 87%; on EGFR(L858R) (sheet T-418), 66%; on EPHA2 (sheet T-418), 100%; at FAK (sheet T-418), 80%. The remaining binding at 0.3 µM at IRAK4 (sheet T-418) was 100%; at KIT(D816V) (sheet T-418), 96%; on KIT(L576P) (sheet T-418), 100%; on LRRK2(G2019S) (sheet T-418), 84%; at MAPKAPK5 (sheet T-418), 92%; on MAST1 (sheet T-418), 100%. Also, the remaining binding at 0.3 µM came out at 95% at MET(Y1235D) (sheet T-418); 100% at NEK2 (sheet T-418); 98% at PCTK1 (sheet T-418); 75% at PIM1 (sheet T-418); 80% on RAF1 (sheet T-418); 86% at RIPK5 (sheet T-418). Further, the remaining binding at 0.3 µM at STK35 (sheet T-418) was 98%; at TIE2 (sheet T-418) it was 85%; at p38-alpha (sheet T-418) it was 100%.

Turning to `Cc1ncccc1Oc1sc(C(N)=O)c2c1-c1c(cnn1C)CC2` [T-474, 1-methyl-8-((2-methylpyridin-3-yl)oxy)-4,5-dihydro-1H-thieno[3,4-g]indazole-6-carboxamide], the remaining binding at 0.3 µM at ADCK4 turned out to be 92%; at CDC2L1, 100%; in experiment [1], 61%; on EGFR(L858R) it was 71%; at EPHA2 it was 86%; at FAK it was 88%. The remaining binding at 0.3 µM on IRAK4 was 100%; at KIT(D816V) it was 94%; on KIT(L576P) it was 100%; on LRRK2(G2019S), 88%; on MAPKAPK5 it was 98%; at MAST1, 100%. For the same molecule, the remaining binding at 0.3 µM on MET(Y1235D) came out at 100%; on NEK2, 100%; on PCTK1 it was 100%; on PIM1, 92%; on RAF1, 98%; at RIPK5, 100%. Moreover, the remaining binding at 0.3 µM on STK35 is 100%; at TIE2, 99%; at p38-alpha it was 99%.
